Results from ChEMBL document CHEMBL3576851, “Bacterial Sliding Clamp Inhibitors that Mimic the Sequential Binding Mechanism of Endogenous Linear Motifs” (J Med Chem, 2015).
Activity calls are given as the source filed them. The rule behind the calls is not given here.

Experiments:
[1] = molecular target: T1, Beta sliding clamp (Escherichia coli (strain K12), UniProt P0A988); test: Inhibition of Escherichia coli DNA sliding clamp protein using N-fluorescein (FAM)-QLDLF-OH tracer by fluorescence polarization assay
T1 sequence (P0A988 whole entry): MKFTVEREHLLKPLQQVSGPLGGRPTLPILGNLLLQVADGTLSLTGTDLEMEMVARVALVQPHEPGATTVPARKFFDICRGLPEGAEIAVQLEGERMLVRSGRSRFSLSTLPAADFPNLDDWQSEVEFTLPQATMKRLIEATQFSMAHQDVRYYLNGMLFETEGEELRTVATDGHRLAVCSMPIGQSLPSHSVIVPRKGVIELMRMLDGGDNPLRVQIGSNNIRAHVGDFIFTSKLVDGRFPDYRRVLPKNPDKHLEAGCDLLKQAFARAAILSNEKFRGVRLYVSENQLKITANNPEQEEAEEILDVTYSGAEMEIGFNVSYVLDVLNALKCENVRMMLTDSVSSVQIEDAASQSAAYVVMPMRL

[2] = molecular target: T1, Beta sliding clamp; test: Binding affinity to Escherichia coli DNA sliding clamp protein at 298K by isothermal titration calorimetry
[3] = molecular target: Beta sliding clamp (Escherichia coli (strain K12)) (UniProt P0A988); test: Inhibition of Escherichia coli DNA sliding clamp protein assessed as reduction in DNA replication at 31 uM in presence of circular ssDNA, RNA primer template, SSB, Pol3-alpha subunit, reconstituted gamma3delta-delta' clamp loader complex by SYBR gold dye based agarose gel electrophoresis method
Chain of Beta sliding clamp (Escherichia coli (strain K12)) (P0A988 whole entry): as above

[4] = molecular target: Beta sliding clamp (Escherichia coli (strain K12)) (UniProt P0A988); test: Inhibition of Escherichia coli DNA sliding clamp protein assessed as reduction in DNA replication at >125 uM in presence of circular ssDNA, RNA primer template, SSB, Pol3-alpha subunit, reconstituted gamma3delta-delta' clamp loader complex by SYBR gold dye based agarose gel electrophoresis method

## NC(=O)CN1CCC(NC(=O)Cn2c3c(c4cc(Br)ccc42)CC[C@@H](C(=O)O)C3)CC1
[1]
  IC50: 307 µM
  Ki: 171 µM

## O=C(Cn1c2c(c3cc(Br)ccc31)CC[C@@H](C(=O)O)C2)N[C@@H](Cc1ccccc1)C(=O)O
[2]
  Kd: 9 µM
[3]
  inhibition: Active
[1]
  IC50: 27 µM
  Ki: 15 µM

## CC(C)(C)OC(=O)N1CCC(CNC(=O)Cn2c3c(c4cc(Br)ccc42)CC[C@@H](C(=O)O)C3)CC1
[1]
  IC50: 150 µM
  Ki: 83 µM

## O=C(O)[C@@H]1CCc2c([nH]c3ccc(I)cc23)C1
[1]
  IC50: 175 µM
  Ki: 97 µM

## NC(=O)CNC(=O)Cn1c2c(c3cc(Br)ccc31)CC[C@@H](C(=O)O)C2
[1]
  IC50: 171 µM
  Ki: 95 µM

## O=C(Cn1c2c(c3cc(Br)ccc31)CC[C@@H](C(=O)O)C2)NCC1CCNCC1
[1]
  IC50: 208 µM
  Ki: 116 µM

## CC(C)(C)OC(=O)NCCCC[C@@H](NC(=O)Cn1c2c(c3cc(Br)ccc31)CC[C@@H](C(=O)O)C2)C(=O)O
[1]
  IC50: 115 µM
  Ki: 64 µM

## O=C(O)CNC(=O)Cn1c2c(c3cc(Cl)ccc31)CC[C@@H](C(=O)O)C2
[2]
  Kd: 24 µM
[1]
  IC50: 85 µM
  Ki: 47 µM

## NC(=O)Cc1ccc(NC(=O)Cn2c3c(c4cc(Cl)ccc42)CC[C@@H](C(=O)O)C3)cc1
[1]
  IC50: 362 µM
  Ki: 201 µM

## NC(=O)c1ccc(CNC(=O)Cn2c3c(c4cc(Br)ccc42)CC[C@@H](C(=O)O)C3)cc1
[1]
  IC50: 64 µM
  Ki: 36 µM

## NC(=O)Cn1c2c(c3cc(Br)ccc31)CC[C@H](C(=O)O)C2
[1]
  IC50: 285 µM
  Ki: 158 µM

## OCC1CCc2c([nH]c3ccc(Cl)cc23)C1 (racemic)
[1]
  IC50: > 1000 µM

## O=C(O)C1CCc2c([nH]c3ccc(Cl)cc23)C1 (racemic)
[1]
  IC50: 299 µM
  Ki: 166 µM

## CCNC(=O)Cn1c2c(c3cc(Cl)ccc31)CC[C@@H](C(=O)O)C2
[1]
  IC50: 347 µM
  Ki: 193 µM

## COC(=O)C1CCc2c([nH]c3ccc(Cl)cc23)C1 (racemic)
[1]
  IC50: > 1000 µM

## NC(=O)Cn1c2c(c3cc(Br)ccc31)CC[C@@H](C(=O)O)C2
[1]
  IC50: 246 µM
  Ki: 137 µM
[4]
  inhibition: Active

## O=C(O)[C@@H]1CCc2c([nH]c3ccc(Br)cc23)C1
[1]
  IC50: 157 µM
  Ki: 87 µM
[4]
  inhibition: Active

## O=C(O)[C@@H]1CCc2c([nH]c3ccc(F)cc23)C1
[1]
  IC50: 817 µM
  Ki: 454 µM

## O=C(O)[C@@H]1CCc2c([nH]c3ccc(Cl)cc23)C1
[1]
  IC50: 134 µM
  Ki: 74 µM
[4]
  inhibition: Active

## NC(=O)Cn1c2c(c3cc(Cl)ccc31)CC[C@H](C(=O)O)C2
[1]
  IC50: 888 µM
  Ki: 493 µM

## CC(C)C[C@H](NC(=O)Cn1c2c(c3cc(Br)ccc31)CC[C@@H](C(=O)O)C2)C(=O)O
[1]
  IC50: 48 µM
  Ki: 27 µM

## O=C(O)[C@H]1CCc2c([nH]c3ccc(Br)cc23)C1
[1]
  IC50: 328 µM
  Ki: 182 µM

## O=C(Cn1c2c(c3cc(Br)ccc31)CC[C@@H](C(=O)O)C2)N[C@H](Cc1ccccc1)C(=O)O
[2]
  Kd: 13 µM
[3]
  inhibition: Active
[1]
  IC50: 30 µM
  Ki: 17 µM

## O=C(O)CNC(=O)Cn1c2c(c3cc(Br)ccc31)CC[C@@H](C(=O)O)C2
[2]
  Kd: 14 µM
[3]
  inhibition: Active
[1]
  IC50: 20 µM
  Ki: 11 µM

## O=C(O)[C@H]1CCc2c([nH]c3ccc(Cl)cc23)C1
[1]
  IC50: 442 µM
  Ki: 246 µM

## NC(=O)Cn1c2c(c3cc(Cl)ccc31)CC[C@@H](C(=O)O)C2
[1]
  IC50: 368 µM
  Ki: 204 µM
[4]
  inhibition: Active

## NC(=O)C1CCc2c([nH]c3ccc(Cl)cc23)C1 (racemic)
[1]
  IC50: > 1000 µM
